The record followed here is ChEMBL document CHEMBL6153037, “Developing dual-responsive quinolinium prodrugs of 8-hydroxyquinoline by harnessing the dual chelating sites” (Eur J Med Chem, 2025).

In brackets after ≈: the same amount, converted by molar mass. Activity calls are given as the source filed them. No cut-off for these calls is given here.

Data set [1] can be described thus: Selectivity index, ratio of inhibition of DNA synthesis in human MCF-10A cells to inhibition of DNA synthesis in human MDA-MB-231 cells. Type of data set: toxicity, cell-based. The settings on record: MCF-10A cells and MDA-MB-231 cells.
Data set [2] concerns MDA-MB-231. In words: Induction of apoptosis in human MDA-MB-231 cells assessed as early apoptotic cells incubated for 24 hrs by Annexin V-FITC/PI staining based flow cytometry (reference value: 0.22 %). Format: functional. (In general: Flow cytometry measures light scatter and fluorescence of single cells or particles in a stream.)
A short description of data set [3]: Lipophilicity, logP of compound. The settings on record: octanol/water. Format: physicochemical.
Data set [4] deals with MDA-MB-231. Put plainly: Induction of apoptosis in human MDA-MB-231 cells assessed as necrotic cells incubated for 24 hrs by Annexin V-FITC/PI staining based flow cytometry (reference value: 0.065 %). Format: functional.
In data set [5] the test system is MCF-10A. In words: Induction of apoptosis in human MCF-10A cells assessed as necrotic cells incubated for 24 hrs by Annexin V-FITC/PI staining based flow cytometry (reference value: 0.17 %). Format: toxicity, cell-based.
A short description of data set [6]: Solubility of compound in double distilled H2O. Format: physicochemical. The settings on record: double distilled water.
Data set [7] can be described thus: Cytotoxicity against human MCF-10A cells assessed as inhibition of cell viability incubated for 48 hrs by MTT assay. Format: toxicity, cell-based. For orientation: Formazan colour is commonly taken as a measure of viable cells.
For data set [8], the system named is MCF-10A. In words: Induction of apoptosis in human MCF-10A cells assessed as late apoptotic cells incubated for 24 hrs by Annexin V-FITC/PI staining based flow cytometry (reference value: 2.16 %). Type of data set: toxicity, cell-based.
Data set [9] can be described thus: Lipophilicity, logD of compound at pH 7.4. Format: physicochemical. The note with it: buffer.
Data set [10] can be described thus: Induction of apoptosis in human MCF-10A cells assessed as viable cells incubated for 24 hrs by Annexin V-FITC/PI staining based flow cytometry (reference value: 96.0 %). The settings on record: read-out: Activity. Format: toxicity, cell-based.
Data set [11] in a line: Toxicity in BALB/c nude mouse xenografted with human MDA-MB-231 cells assessed as body weight change at 20 mg/kg, iv administered every two days for 21 days. Type of data set: organism-based. The note with it: in vivo, 504 h, time 21 day. A general note: In xenograft studies the graft and the host belong to different species.
Data set [12] deals with MDA-MB-231. Put plainly: Antitumor activity against human MDA-MB-231 cells assessed as sphere-forming efficiency incubated for 6 hrs followed by medium replacement without compound measured after 6 days by microscopic analysis (reference value: 1.07 %). Type of data set: functional.
Data set [13] concerns MDA-MB-231. Put plainly: Induction of apoptosis in human MDA-MB-231 cells assessed as viable cells incubated for 24 hrs by Annexin V-FITC/PI staining based flow cytometry (reference value: 99.5 %). Type of data set: functional.
For data set [14], the system named is MDA-MB-231. In words: Effect on phlorizin-induced cytotoxicity against human MDA-MB-231 cells incubated for 12 hrs by MTT assay. Format: functional, cell-based.
Data set [15] has as its system MDA-MB-231. In words: Induction of apoptosis in human MDA-MB-231 cells assessed as late apoptotic cells incubated for 24 hrs by Annexin V-FITC/PI staining based flow cytometry (reference value: 0.17 %). Format: functional.
The test system of data set [16] is MDA-MB-231. Put plainly: Cytotoxicity against human MDA-MB-231 cells incubated for 24 to 48 hrs by MTT assay. Type of data set: functional, cell-based. The settings on record: time 24-48 hrs.
Data set [17] deals with MCF-10A. Put plainly: Induction of apoptosis in human MCF-10A cells assessed as early apoptotic cells incubated for 24 hrs by Annexin V-FITC/PI staining based flow cytometry (reference value: 1.66 %). Type of data set: toxicity, cell-based.
The nature of data set [18]: Solubility of compound in PBS buffer at pH 7.4. Type of data set: physicochemical.
Data set [19] concerns MDA-MB-231. Put plainly: Cytotoxicity against human MDA-MB-231 cells assessed as inhibition of cell viability incubated for 48 hrs by MTT assay. Format: functional, cell-based. The note with it: MDA-MB-231, 48 h.
Data set [20] deals with MDA-MB-231. Put plainly: Cytotoxicity against human MDA-MB-231 cells incubated for 12 hrs by MTT assay. Format: functional, cell-based. The settings on record: MDA-MB-231, 12 h.
In data set [21] the test system is MDA-MB-231. In words: Cytotoxicity against human MDA-MB-231 cells incubated for 24 hrs by MTT assay. Type of data set: functional, cell-based. The settings on record: MDA-MB-231, 24 h.
In data set [22] the test system is MDA-MB-231. In words: Induction of apoptosis in human MDA-MB-231 cells incubated for 24 hrs by TUNEL assay. Type of data set: functional, cell-based.
The test system of data set [23] is MDA-MB-231. Put plainly: Antitumor activity against human MDA-MB-231 cells xenografted in BALB/c nude mouse at 20 mg/kg, iv administered every two days for 21 days relative to control. Type of data set: functional. The settings on record: MDA-MB-231, 504 h, time 21 day, read-out: TGI.
Data set [24] concerns MCF-10A. Put plainly: Cytotoxicity against human MCF-10A cells assessed as inhibition of cell viability at 150 uM incubated for 48 hrs by MTT assay. Format: toxicity, cell-based.
Data set [25] deals with MDA-MB-231. In words: Inhibition of mitochondrial membrane potential in human MDA-MB-231 cells incubated for 24 hrs by JC-1 dye based analysis. Type of data set: functional, cell-based.
Data set [26] deals with MDA-MB-231. In words: Antitumor activity against human MDA-MB-231 cells xenografted in BALB/c nude mouse assessed as tumor size at 20 mg/kg, iv administered every two days for 21 days (reference value: 1940 mm3). Format: functional. The note with it: time 21 day.
Data set [27] concerns MDA-MB-231. In words: Cytotoxicity against human MDA-MB-231 cells incubated for 48 hrs by MTT assay. Format: functional, cell-based. The note with it: MDA-MB-231, 48 h.
The test system of data set [28] is MDA-MB-231. Put plainly: Induction of apoptosis in human MDA-MB-231 cells assessed as increase in caspase-3 activity incubated for 24 hrs. Type of data set: functional, cell-based.
Data set [29] has as its system MDA-MB-231. In words: Antitumor activity against human MDA-MB-231 cells xenografted in BALB/c nude mouse assessed as tumor growth inhibition at 20 mg/kg, iv administered every two days for 21 days. The settings on record: time 21.0 day. Type of data set: functional, organism-based.
The subject of data set [30] is MCF-10A. Put plainly: Induction of apoptosis in human MCF-10A cells assessed as increase in caspase-3 activity incubated for 24 hrs. Type of data set: toxicity, cell-based.
Data set [31] has as its system MDA-MB-231. Put plainly: Antitumor activity against human MDA-MB-231 cells assessed as reduction in sphere volume incubated for 6 hrs followed by medium replacement without compound measured after 6 days by microscopic analysis. Format: functional, cell-based.
The subject of data set [32] is MCF-10A. In words: Inhibition of mitochondrial membrane potential in human MCF-10A cells incubated for 24 hrs by JC-1 dye based analysis. Format: toxicity, cell-based.
In data set [33] the test system is MDA-MB-231. In words: Induction of DNA damage in human MDA-MB-231 cells assessed as increase in gamma-H2AX level incubated for 24 hrs by immunofluorescence based analysis. Format: functional, cell-based.
Data set [34] relates to MDA-MB-231. Put plainly: Inhibition of mitochondrial membrane potential in human MDA-MB-231 cells assessed as decrease in ATP level incubated for 24 hrs by luminescence based analysis. Format: functional, cell-based.
Data set [35] relates to MDA-MB-231. In words: Inhibition of mitochondrial membrane potential in human MDA-MB-231 cells assessed as increase in intracellular calcium ion level incubated for 24 hrs by Fluo-4 AM dye based analysis. Format: functional, cell-based.

The term logP denotes a log measure of how a compound divides between an organic and an aqueous phase. Broadly, the solubility is how much of the substance goes into solution per volume. In general, IC50 refers to the concentration at which inhibition is half-maximal. As a reminder, the logD is lipophilicity at a set pH, counting ionised and neutral species. For `OC[C@H]1O[C@@H](Oc2ccc(COc3cccc4cccnc34)cc2)[C@H](O)[C@@H](O)[C@@H]1O`, in [1], the selectivity ratio came to 2.3. The Activity is on record as 52.3% in data set [2]; 0.11% in [4]; 0.88% in data set [5]; 13.3% in data set [8]; “Non-toxic” in data set [11]; 0.21% in [12]. Moreover, the results for the Activity in data set [13], in data set [15] and in data set [17] were 24.5%, 23% and 9.17%, respectively. The same compound registered a logP in [3] of 3.81. The solubility came to 17.3 µg/mL (≈ 41.9 µM) in data set [6] and 15.6 µg/mL (≈ 37.8 µM) in data set [18]. Also, the IC50 at 48 h in [7] came to 4.13 µM. The logD in data set [9] was determined as 4.14. Also, the viability at 24 h in [10] amounted to 76.6%. Also, the result in data set [14] was inactive. Further, the result in [16] was Active. In [19], the 50% inhibitory concentration (IC50) turned out to be 1.2 µM.
In [20], `O=C(CCc1ccc(O)cc1)c1c(O)cc(O)cc1O[C@@H]1O[C@H](CO)[C@@H](O)[C@H](O)[C@H]1O` [PHLORIZIN] registered an IC50 of 26.2 µM.
With `OC[C@H]1O[C@@H](Oc2ccc(C[n+]3cccc4cccc(O)c43)cc2)[C@H](O)[C@@H](O)[C@@H]1O.[Cl-]`, in data set [1], the selectivity ratio stood at 5.7. Besides, the Activity in data set [2] is given as 36.1%; in data set [4] it was 0.043%; in data set [5] it was 0.4%; in [24], “Non-toxic”; in data set [8], 6.44%; in data set [26], 970 mm3. The Activity result is “Non-toxic” in data set [11]; 0.26% in [12]; 53.4% in data set [13]; 10.5% in [15]; “Dose-dependent-effect” in data set [28]; “Non-toxic” in data set [30]. The Activity in data set [17] came out at 5.79%. In addition, in [3] (read-out: logP), the logP was found to be 2.93. The 50% inhibitory concentration (IC50) in [21] was 31 µM; in [27], 17.9 µM; in data set [19], 26.2 µM. Further, the outcome in [22], in data set [31] and in [33] was Active. Besides, the inhibition in vivo at 20 mg/kg in [23] is 49.6%. Moreover, the solubility in data set [6] worked out at 35.5 µg/mL; in [18], 34.2 µg/mL. Also, the inhibition entry in data set [25], in data set [29], in [34] and in [35] was “Active” throughout. Moreover, the log distribution coefficient (logD) in data set [9] (read-out: logD) came out at 1.72. Also, in data set [10], the viability at 24 h was 87.4%. The “inhibition (INH)” value in [32] was “Non-toxic”.
